Laboratory results: ChEMBL document CHEMBL1201861, “Genomics of Drug Sensitity in Cancer screening data, Wellcome Trust Sanger Institute”

Key:
Assay in all cases: cells
Format in all cases: functional, cell-based, Homo sapiens
SF-126 = test system: SF-126;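 also: growth inhibition of human SF126 cells, read out with a cell viability assay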
Description: SANGER: Inhibition of human SF126 cell growth in a cell viability assay.

NMC-G1 = test system: NMC-G1;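 also: growth inhibition of the NMC-G1 cell line, measured with a cell viability read-out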
Description: SANGER: Inhibition of human NMC-G1 cell growth in a cell viability assay.

NCI-H2126 = test system: NCI-H2126;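 also: growth inhibition of the cancer cell line, determined with a cell viability readout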
Description: SANGER: Inhibition of human NCI-H2126 cell growth in a cell viability assay.

SNU-5 = test system: SNU-5;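 also: cell viability readout used to measure growth inhibition in human NCI-SNU-5 cells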
Description: SANGER: Inhibition of human NCI-SNU-5 cell growth in a cell viability assay.

Becker = test system: Becker;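 also: growth inhibition of Becker cells, read out with a cell viability assay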
Description: SANGER: Inhibition of human Becker cell growth in a cell viability assay.

Calu-6 = test system: Calu-6;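 also: growth of human Calu-6 cells, read out by a cell viability assay, IC50 marking inhibition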
Description: SANGER: Inhibition of human Calu-6 cell growth in a cell viability assay.

MS-1 = test system: MS-1;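 also: growth inhibition of MS-1 cells, read out by cell viability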
Description: SANGER: Inhibition of human MS-1 cell growth in a cell viability assay.

ALL-PO = test system: ALL-PO;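 also: growth inhibition of ALL-PO cells, read out by a cell viability assay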
Description: SANGER: Inhibition of human ALL-PO cell growth in a cell viability assay.

HCC2218 = test system: HCC2218;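 also: cell viability assay read-out, with IC50 given as the concentration that inhibits growth of the cell line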
Description: SANGER: Inhibition of human HCC2218 cell growth in a cell viability assay.

KM12 = test system: KM12;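 also: KM12 cell growth inhibition, read out with a cell viability assay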
Description: SANGER: Inhibition of human KM12 cell growth in a cell viability assay.

KGN = test system: KGN;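 also: growth inhibition of KGN cells, read out with a cell viability assay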
Description: SANGER: Inhibition of human KGN cell growth in a cell viability assay.

RXF 393 = test system: RXF 393;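 also: growth inhibition of human RXF 393 cells, read out with a cell viability assay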
Description: SANGER: Inhibition of human RXF393 cell growth in a cell viability assay.

HT-144 = test system: HT-144
Description: SANGER: Inhibition of human HT-144 cell growth in a cell viability assay.

CTB-1 = test system: CTB-1
Description: SANGER: Inhibition of human CTB-1 cell growth in a cell viability assay.

NCI-H526 = test system: NCI-H526;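 also: growth inhibition of the human NCI-H526 cell line, measured by a cell viability assay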
Description: SANGER: Inhibition of human NCI-H526 cell growth in a cell viability assay.

EW-16 = test system: EW-16;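 also: growth inhibition of human EW-16 cells, read out as cell viability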
Description: SANGER: Inhibition of human EW-16 cell growth in a cell viability assay.

SCH = test system: SCH;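 also: growth inhibition of human SCH cells, read out in a cell viability assay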
Description: SANGER: Inhibition of human SCH cell growth in a cell viability assay.

CTV-1 = test system: CTV-1;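 also: growth inhibition of the cell line, read out with a cell viability assay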
Description: SANGER: Inhibition of human CTV-1 cell growth in a cell viability assay.

SNU1 = settings: Homo sapiens, SNU1;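 also: growth inhibition of human NCI-SNU-1 cells, measured with a cell viability assay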
Description: SANGER: Inhibition of human NCI-SNU-1 cell growth in a cell viability assay.

COLO-824 = test system: COLO-824
Description: SANGER: Inhibition of human COLO-824 cell growth in a cell viability assay.

KY821 = test system: KY821;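 also: growth inhibition of human KY821 cells, read out by a cell viability assay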
Description: SANGER: Inhibition of human KY821 cell growth in a cell viability assay.

EOL1 = test system: EOL1;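 also: growth inhibition of EoL-1 cells, read out by a cell viability assay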
Description: SANGER: Inhibition of human EoL-1-cell cell growth in a cell viability assay.

COLO-320-HSR = test system: COLO-320-HSR;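 also: growth inhibition of COLO-320-HSR cells, determined with a cell viability assay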
Description: SANGER: Inhibition of human COLO-320-HSR cell growth in a cell viability assay.

TE-11 = test system: TE-11;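 also: growth inhibition of human TE-11 cells, read out by a cell viability assay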
Description: SANGER: Inhibition of human TE-11 cell growth in a cell viability assay.

SNU-C2B = test system: SNU-C2B;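 also: cell viability readout used to measure compound-driven suppression of SNU-C2B cell proliferation, IC50 marking half-maximal growth inhibition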
Description: SANGER: Inhibition of human SNU-C2B cell growth in a cell viability assay.

VA-ES-BJ = test system: VA-ES-BJ;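 also: growth inhibition of the VA-ES-BJ cell line, read out by a cell viability assay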
Description: SANGER: Inhibition of human VA-ES-BJ cell growth in a cell viability assay.

ES6 = test system: ES6;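 also: growth inhibition of human ES6 cells, read out with a cell viability assay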
Description: SANGER: Inhibition of human ES6 cell growth in a cell viability assay.

LB2518-MEL = test system: LB2518-MEL;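 also: growth inhibition of human LB2518-MEL cells, measured with a cell viability assay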
Description: SANGER: Inhibition of human LB2518-MEL cell growth in a cell viability assay.

TE-6 = test system: TE-6;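 also: growth inhibition of TE-6 cells, read out with a cell viability assay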
Description: SANGER: Inhibition of human TE-6 cell growth in a cell viability assay.

NCI-H1304 = test system: NCI-H1304;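 also: growth inhibition of the cancer cell line, measured in a cell viability assay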
Description: SANGER: Inhibition of human NCI-H1304 cell growth in a cell viability assay.

SK-N-FI = test system: SK-N-FI;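 also: cell viability assay measuring growth inhibition of human SK-N-FI cells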
Description: SANGER: Inhibition of human SK-N-FI cell growth in a cell viability assay.

LU-134-A = test system: LU-134-A
Description: SANGER: Inhibition of human LU-134-A cell growth in a cell viability assay.

BT-474 = test system: BT-474
Description: SANGER: Inhibition of human BT-474 cell growth in a cell viability assay.

PSN1 = test system: PSN1;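 also: suppression of growth of human PSN1 cells, read out by a cell viability assay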
Description: SANGER: Inhibition of human PSN1 cell growth in a cell viability assay.

HCC1187 = test system: HCC1187;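 also: growth inhibition of HCC1187 cells, read out with a cell viability assay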
Description: SANGER: Inhibition of human HCC1187 cell growth in a cell viability assay.

LU-139 = test system: LU-139
Description: SANGER: Inhibition of human LU-139 cell growth in a cell viability assay.

A388 = test system: A388;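 also: growth inhibition of human A388 cells, read out with a cell viability assay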
Description: SANGER: Inhibition of human A388 cell growth in a cell viability assay.

SJSA-1 = test system: SJSA-1;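 also: growth inhibition of human SJSA-1 cells, read out through a cell viability measurement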
Description: SANGER: Inhibition of human SJSA-1 cell growth in a cell viability assay.

no-11 = test system: no-11;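 also: growth inhibition of human NO-11 cells, read out with a cell viability assay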
Description: SANGER: Inhibition of human no-11 cell growth in a cell viability assay.

D-263MG = test system: D-263MG
Description: SANGER: Inhibition of human D-263MG cell growth in a cell viability assay.

JAR = test system: JAR;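 also: growth inhibition of human JAR cells determined with a cell viability assay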
Description: SANGER: Inhibition of human JAR cell growth in a cell viability assay.

CAS-1 = test system: CAS-1;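 also: growth inhibition of CAS-1 cells, measured with a cell viability assay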
Description: SANGER: Inhibition of human CAS-1 cell growth in a cell viability assay.

MFH-ino = test system: MFH-ino;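 also: growth inhibition of human MFH-ino cells, read out by a cell viability assay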
Description: SANGER: Inhibition of human MFH-ino cell growth in a cell viability assay.

A704 = test system: A704;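 also: growth inhibition of human A704 cells, read out with a cell viability assay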
Description: SANGER: Inhibition of human A704 cell growth in a cell viability assay.

HEL = test system: HEL;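 also: growth inhibition of HEL cells, read out with a cell viability assay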
Description: SANGER: Inhibition of human HEL cell growth in a cell viability assay.

C8166 = test system: C8166;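 also: growth inhibition of human C8166 cells measured by a cell viability assay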
Description: SANGER: Inhibition of human C8166 cell growth in a cell viability assay.

LAN-6 = test system: LAN-6;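 also: growth inhibition of LAN-6 cells, determined with a cell viability assay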
Description: SANGER: Inhibition of human LAN-6 cell growth in a cell viability assay.

A253 cell line = settings: Homo sapiens, A253;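 also: growth inhibition of A253 cells, read out with a cell viability assay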
Description: SANGER: Inhibition of human A253 cell growth in a cell viability assay.

CN(C)C(=N)NC(=N)N [METFORMIN]
IC50 (SF-126; Homo sapiens, SF-126): > 20000 µM
IC50 (NMC-G1; Homo sapiens, NMC-G1): > 20000 µM
IC50 (NCI-H2126; Homo sapiens, NCI-H2126): > 20000 µM
IC50 (SNU-5; Homo sapiens, SNU-5): 3700 µM
IC50 (Becker; Homo sapiens, Becker): > 20000 µM
IC50 (Calu-6; Homo sapiens, Calu-6): 15200 µM
IC50 (MS-1; Homo sapiens, MS-1): > 20000 µM
IC50 (ALL-PO; Homo sapiens, ALL-PO): 2900 µM
IC50 (HCC2218; Homo sapiens, HCC2218): 701 µM
IC50 (KM12; Homo sapiens, KM12): > 20000 µM
IC50 (KGN; Homo sapiens, KGN): > 20000 µM
IC50 (RXF 393; Homo sapiens, RXF 393): > 20000 µM
IC50 (HT-144; Homo sapiens, HT-144): > 20000 µM
IC50 (CTB-1; Homo sapiens, CTB-1): > 20000 µM
IC50 (NCI-H526; Homo sapiens, NCI-H526): 16100 µM
IC50 (EW-16; Homo sapiens, EW-16): 6780 µM
IC50 (SCH; Homo sapiens, SCH): > 20000 µM
IC50 (CTV-1; Homo sapiens, CTV-1): 1970 µM
IC50 (SNU1): 8470 µM
IC50 (COLO-824; Homo sapiens, COLO-824): > 20000 µM
IC50 (KY821; Homo sapiens, KY821): 1530 µM
IC50 (EOL1; Homo sapiens, EOL1): 1820 µM
IC50 (COLO-320-HSR; Homo sapiens, COLO-320-HSR): > 20000 µM
IC50 (TE-11; Homo sapiens, TE-11): > 20000 µM
IC50 (SNU-C2B; Homo sapiens, SNU-C2B): > 20000 µM
IC50 (VA-ES-BJ; Homo sapiens, VA-ES-BJ): 13300 µM
IC50 (ES6; Homo sapiens, ES6): > 20000 µM
IC50 (LB2518-MEL; Homo sapiens, LB2518-MEL): > 20000 µM
IC50 (TE-6; Homo sapiens, TE-6): 14200 µM
IC50 (NCI-H1304; Homo sapiens, NCI-H1304): 15600 µM
IC50 (SK-N-FI; Homo sapiens, SK-N-FI): > 20000 µM
IC50 (LU-134-A; Homo sapiens, LU-134-A): 13000 µM
IC50 (BT-474; Homo sapiens, BT-474): > 20000 µM
IC50 (PSN1; Homo sapiens, PSN1): > 20000 µM
IC50 (HCC1187; Homo sapiens, HCC1187): 14200 µM
IC50 (LU-139; Homo sapiens, LU-139): > 20000 µM
IC50 (A388; Homo sapiens, A388): > 20000 µM
IC50 (SJSA-1; Homo sapiens, SJSA-1): > 20000 µM
IC50 (no-11; Homo sapiens): > 20000 µM
IC50 (D-263MG; Homo sapiens, D-263MG): > 20000 µM
IC50 (JAR; Homo sapiens, JAR): 9030 µM

CISPLATIN
IC50 (SF-126; sf-126): 12.1 µM
IC50 (NMC-G1; nmc-g1): 14.5 µM
IC50 (CAS-1; cas-1): 116 µM
IC50 (NCI-H2126; nci-h2126): 221 µM
IC50 (SNU-5; snu-5): 141 µM
IC50 (Becker; becker): 17.8 µM
IC50 (Calu-6; calu-6): 75.8 µM
IC50 (MS-1; ms-1): 14.1 µM
IC50 (ALL-PO; all-po): 31.1 µM
IC50 (HCC2218; hcc2218): 398 µM
IC50 (KM12; km12): 114 µM
IC50 (KGN; kgn): 17.6 µM
IC50 (RXF 393; rxf 393): 7.86 µM
IC50 (HT-144; ht-144): 3.58 µM
IC50 (CTB-1; ctb-1): 2.3 µM
IC50 (MFH-ino; mfh-ino): 1340 µM
IC50 (NCI-H526; nci-h526): 2.06 µM
IC50 (EW-16; ew-16): 24.6 µM
IC50 (SCH; sch): 13.2 µM
IC50 (CTV-1; ctv-1): 34 µM
IC50 (COLO-824; colo-824): 114 µM
IC50 (KY821; ky821): 80 µM
IC50 (A704; a704): 115 µM
IC50 (EOL1; eol1): 38 µM
IC50 (COLO-320-HSR; colo-320-hsr): 338 µM
IC50 (TE-11; te-11): 16.4 µM
IC50 (SNU-C2B; snu-c2b): 38.4 µM
IC50 (HEL; hel): 1.39 µM
IC50 (VA-ES-BJ; va-es-bj): 2.45 µM
IC50 (ES6; es6): 21.3 µM
IC50 (LB2518-MEL; lb2518-mel): 116 µM
IC50 (TE-6; te-6): 57.3 µM
IC50 (NCI-H1304; nci-h1304): 9.85 µM
IC50 (C8166; c8166): 208 µM
IC50 (SK-N-FI; sk-n-fi): 313 µM
IC50 (LU-134-A; lu-134-a): 3.94 µM
IC50 (BT-474; bt-474): 1100 µM
IC50 (PSN1; psn1): 1.68 µM
IC50 (HCC1187; hcc1187): 117 µM
IC50 (LU-139; lu-139): 95.6 µM
IC50 (A388; a388): 51.9 µM
IC50 (SJSA-1; sjsa-1): 23 µM
IC50 (LAN-6; lan-6): 256 µM
IC50 (no-11): 15.6 µM
IC50 (D-263MG; d-263mg): 6.66 µM
IC50 (JAR; jar): 3.35 µM

CS(=O)(=O)c1ccc(C(=O)Nc2ccc(Cl)c(-c3ccccn3)c2)c(Cl)c1 [VISMODEGIB]
IC50 (SF-126; Homo sapiens, SF-126): > 10 µM
IC50 (NMC-G1; Homo sapiens, NMC-G1): > 10 µM
IC50 (CAS-1; Homo sapiens, CAS-1): > 10 µM
IC50 (NCI-H2126; Homo sapiens, NCI-H2126): > 10 µM
IC50 (SNU-5; Homo sapiens, SNU-5): > 10 µM
IC50 (Becker; Homo sapiens, Becker): > 10 µM
IC50 (Calu-6; Homo sapiens, Calu-6): > 10 µM
IC50 (MS-1; Homo sapiens, MS-1): > 10 µM
IC50 (ALL-PO; Homo sapiens, ALL-PO): > 10 µM
IC50 (KM12; Homo sapiens, KM12): > 10 µM
IC50 (KGN; Homo sapiens, KGN): > 10 µM
IC50 (RXF 393; Homo sapiens, RXF 393): > 10 µM
IC50 (HT-144; Homo sapiens, HT-144): > 10 µM
IC50 (CTB-1; Homo sapiens, CTB-1): > 10 µM
IC50 (MFH-ino; Homo sapiens, MFH-ino): > 10 µM
IC50 (NCI-H526; Homo sapiens, NCI-H526): > 10 µM
IC50 (EW-16; Homo sapiens, EW-16): > 10 µM
IC50 (SCH; Homo sapiens, SCH): > 10 µM
IC50 (CTV-1; Homo sapiens, CTV-1): > 10 µM
IC50 (SNU1): > 10 µM
IC50 (COLO-824; Homo sapiens, COLO-824): > 10 µM
IC50 (A704; Homo sapiens, A704): > 10 µM
IC50 (COLO-320-HSR; Homo sapiens, COLO-320-HSR): > 10 µM
IC50 (TE-11; Homo sapiens, TE-11): > 10 µM
IC50 (SNU-C2B; Homo sapiens, SNU-C2B): > 10 µM
IC50 (HEL; Homo sapiens, HEL): > 10 µM
IC50 (VA-ES-BJ; Homo sapiens, VA-ES-BJ): > 10 µM
IC50 (ES6; Homo sapiens, ES6): > 10 µM
IC50 (LB2518-MEL; Homo sapiens, LB2518-MEL): > 10 µM
IC50 (TE-6; Homo sapiens, TE-6): > 10 µM
IC50 (NCI-H1304; Homo sapiens, NCI-H1304): > 10 µM
IC50 (C8166; Homo sapiens, C8166): > 10 µM
IC50 (SK-N-FI; Homo sapiens, SK-N-FI): > 10 µM
IC50 (LU-134-A; Homo sapiens, LU-134-A): > 10 µM
IC50 (BT-474; Homo sapiens, BT-474): > 10 µM
IC50 (PSN1; Homo sapiens, PSN1): > 10 µM
IC50 (HCC1187; Homo sapiens, HCC1187): > 10 µM
IC50 (LU-139; Homo sapiens, LU-139): > 10 µM
IC50 (A388; Homo sapiens, A388): > 10 µM
IC50 (SJSA-1; Homo sapiens, SJSA-1): > 10 µM
IC50 (LAN-6; Homo sapiens, LAN-6): > 10 µM
IC50 (no-11; Homo sapiens): > 10 µM
IC50 (D-263MG; Homo sapiens, D-263MG): > 10 µM
IC50 (JAR; Homo sapiens, JAR): > 10 µM

CC(C)c1ccccc1Cc1cc(C(=O)Nc2ccc(S(=O)(=O)c3ccccc3C(C)(C)C)cc2)c(O)c(O)c1O
IC50 (SF-126; Homo sapiens, SF-126): 0.0571 µM
IC50 (NMC-G1; Homo sapiens, NMC-G1): 0.505 µM
IC50 (A253 cell line): 0.57 µM
IC50 (CAS-1; Homo sapiens, CAS-1): 2.78 µM
IC50 (NCI-H2126; Homo sapiens, NCI-H2126): 0.782 µM
IC50 (Becker; Homo sapiens, Becker): 0.242 µM
IC50 (Calu-6; Homo sapiens, Calu-6): 0.887 µM
IC50 (KM12; Homo sapiens, KM12): 1.88 µM
IC50 (KGN; Homo sapiens, KGN): 0.436 µM
IC50 (RXF 393; Homo sapiens, RXF 393): 1.21 µM
IC50 (HT-144; Homo sapiens, HT-144): 0.152 µM
IC50 (EW-16; Homo sapiens, EW-16): 0.185 µM
IC50 (SCH; Homo sapiens, SCH): 0.367 µM
IC50 (COLO-824; Homo sapiens, COLO-824): 0.691 µM
IC50 (TE-11; Homo sapiens, TE-11): 0.151 µM
IC50 (SNU-C2B; Homo sapiens, SNU-C2B): 0.257 µM
IC50 (HEL; Homo sapiens, HEL): 0.522 µM
IC50 (VA-ES-BJ; Homo sapiens, VA-ES-BJ): 0.0396 µM
IC50 (ES6; Homo sapiens, ES6): 0.373 µM
IC50 (LB2518-MEL; Homo sapiens, LB2518-MEL): 0.178 µM
IC50 (TE-6; Homo sapiens, TE-6): 24.5 µM
IC50 (SK-N-FI; Homo sapiens, SK-N-FI): 0.328 µM
IC50 (BT-474; Homo sapiens, BT-474): 3.87 µM
IC50 (PSN1; Homo sapiens, PSN1): 0.167 µM
IC50 (HCC1187; Homo sapiens, HCC1187): 0.425 µM
IC50 (A388; Homo sapiens, A388): 0.167 µM
IC50 (SJSA-1; Homo sapiens, SJSA-1): 0.327 µM
IC50 (LAN-6; Homo sapiens, LAN-6): 0.16 µM
IC50 (no-11; Homo sapiens): 2.84 µM
IC50 (D-263MG; Homo sapiens, D-263MG): 0.283 µM
IC50 (JAR; Homo sapiens, JAR): 0.0026 µM
